Source: patent publication US10300058B2, “Tyrosine kinase inhibitor and uses thereof” (Xuanzhu Pharma Co., Ltd., priority 2014, dated 2019)

Tests used:
EGFR T790M = EGFR T790M (Homo sapiens (Human), UniProt P00533, T790M); assay: Mobility Shift Assay, in vitro enzyme-inhibiting activity, EGFR T790M; assay type: biochemical; settings: for IC50: Km ATP; for Selectivity (WT/T790M): ratio of IC50
Method: (§1) 1. Preparation of Reagents
(§2) 2. Preparation of a Compound Solution
(§3) (1) To the second well of a 96-well plate, 5 μL 10 mM compound (dissolved in DMSO) was added, and 95 μL 100% DMSO was added to prepare 100 μL 0.5 mM compound.
(§4) (2) To other wells, 60 μL 100% DMSO was added. 20 μL compound from the second well was added to the third well, and 4-fold dilution was further performed to get 10 diluted concentrations.
(§5) (3) To the first well and the twelfth well of the 96-well plate, 100 μL 100% DMSO was separately added, and the two wells were used as control wells.
(§6) (4) 10 μL from each well of the 96-well plate was added to another 96-well plate, and 90 μL 1-fold kinase buffer was added.
(§7) (5) 5 μL from the 96-well plate was added to another 384-well plate, for example, transferred from A1 well of the 96-well plate to A1 and A2 wells of the 384-well plate, and transferred from A2 well of the 96-well plate to A3 and A4 wells of the 384-well plate, and so on.
(§8) To 384-well plate, 10 μL 2.5-fold enzyme solution was added, and incubated at room temperature for 10 min.
(§9) (5) Kinase reaction and stop
(§10) After incubation at 28° C. for a period of time (depending on kinase), 25 μL stop solution was added.
(§11) 4. Data on percent conversion was read by Caliper.
(§12) (1) Data on enzyme activity was obtained by Caliper program;
(§13) (2) Inhibition rate of enzyme activity was calculated from the data on enzyme activity by the following formula: Inhibition rate(%)=(maximal value−the measured value of a test compound)/(maximal value-minimal value)×100,
(§14) wherein, the maximal value represents the measured value of DMSO control; and the minimal value represents the measured value of blank control.
(§15) (3) Calculation of IC50 value by XLFit excel.

wild-type EGFR (WT EGFR) = wild-type EGFR (WT EGFR) (Homo sapiens (Human), UniProt P00533); assay: Mobility Shift Assay, in vitro enzyme-inhibiting activity, wild-type EGFR; assay type: biochemical; settings: Km ATP
Chain of wild-type EGFR (WT EGFR) (P00533 25-1210): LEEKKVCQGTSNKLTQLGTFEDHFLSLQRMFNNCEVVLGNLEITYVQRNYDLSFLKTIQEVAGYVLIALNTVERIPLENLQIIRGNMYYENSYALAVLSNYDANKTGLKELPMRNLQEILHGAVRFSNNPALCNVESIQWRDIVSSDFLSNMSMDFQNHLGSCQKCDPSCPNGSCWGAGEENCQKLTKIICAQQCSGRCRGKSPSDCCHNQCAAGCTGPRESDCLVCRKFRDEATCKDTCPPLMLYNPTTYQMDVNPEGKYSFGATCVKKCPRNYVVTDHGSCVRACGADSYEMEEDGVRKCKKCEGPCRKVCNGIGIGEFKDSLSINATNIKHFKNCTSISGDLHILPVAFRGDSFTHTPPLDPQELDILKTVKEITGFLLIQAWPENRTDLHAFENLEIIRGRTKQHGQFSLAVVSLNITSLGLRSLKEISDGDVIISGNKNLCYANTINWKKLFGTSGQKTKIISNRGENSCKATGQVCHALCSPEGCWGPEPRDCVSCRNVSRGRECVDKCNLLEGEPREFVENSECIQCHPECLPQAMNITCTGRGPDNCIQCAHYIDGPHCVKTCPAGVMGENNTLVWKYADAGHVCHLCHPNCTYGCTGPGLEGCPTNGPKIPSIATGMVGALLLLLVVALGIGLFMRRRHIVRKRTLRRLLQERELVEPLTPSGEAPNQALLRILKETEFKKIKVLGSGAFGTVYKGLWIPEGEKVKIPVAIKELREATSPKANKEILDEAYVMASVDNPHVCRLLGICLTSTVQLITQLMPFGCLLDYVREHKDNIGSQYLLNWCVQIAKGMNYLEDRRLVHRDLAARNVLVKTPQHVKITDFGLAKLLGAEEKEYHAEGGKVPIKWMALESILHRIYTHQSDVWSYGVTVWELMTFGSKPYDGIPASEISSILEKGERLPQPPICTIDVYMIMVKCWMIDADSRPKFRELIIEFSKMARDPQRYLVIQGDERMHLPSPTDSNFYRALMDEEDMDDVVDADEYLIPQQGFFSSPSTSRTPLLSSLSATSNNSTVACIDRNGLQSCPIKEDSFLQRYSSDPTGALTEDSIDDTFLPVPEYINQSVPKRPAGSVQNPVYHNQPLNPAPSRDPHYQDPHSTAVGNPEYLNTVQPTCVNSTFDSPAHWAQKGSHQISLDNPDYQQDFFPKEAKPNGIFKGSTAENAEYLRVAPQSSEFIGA
Method: as §1, §2, §3, §4, §5, §6, §7, §8, §9, §10, §11, §12, §13, §14, §15

EGFR L858R = EGFR L858R (Homo sapiens (Human), UniProt P00533, L858R); assay: Mobility Shift Assay, in vitro enzyme-inhibiting activity, EGFR L858R; assay type: biochemical; settings: Table 7
Method: as §1, §2, §3, §4, §5, §6, §7, §8, §9, §10, §11, §12, §13, §14, §15

EGFR (d746-750) = EGFR (d746-750) (Homo sapiens (Human), UniProt P00533, DEL746-750); assay: Mobility Shift Assay, in vitro enzyme-inhibiting activity, EGFR (d746-750); assay type: biochemical; settings: Table 7
Chain of EGFR (d746-750) (P00533 other isoform, or with tags, fused parts or gaps del 1-668/del 746-750 limits assumed): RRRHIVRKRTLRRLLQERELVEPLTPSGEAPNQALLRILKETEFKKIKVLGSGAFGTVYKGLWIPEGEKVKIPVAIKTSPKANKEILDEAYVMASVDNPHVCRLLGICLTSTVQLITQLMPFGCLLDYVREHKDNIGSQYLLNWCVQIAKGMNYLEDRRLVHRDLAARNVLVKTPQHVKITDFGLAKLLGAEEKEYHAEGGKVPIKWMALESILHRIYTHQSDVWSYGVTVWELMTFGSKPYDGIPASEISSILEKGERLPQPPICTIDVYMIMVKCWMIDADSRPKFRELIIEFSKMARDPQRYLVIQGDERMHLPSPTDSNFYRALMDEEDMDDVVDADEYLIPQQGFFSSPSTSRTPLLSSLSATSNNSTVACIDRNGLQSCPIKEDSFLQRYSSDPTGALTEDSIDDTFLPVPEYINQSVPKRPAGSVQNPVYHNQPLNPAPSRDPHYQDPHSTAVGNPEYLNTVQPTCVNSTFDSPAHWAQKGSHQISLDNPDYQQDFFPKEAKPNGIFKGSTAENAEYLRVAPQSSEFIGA
Method: as §1, §2, §3, §4, §5, §6, §7, §8, §9, §10, §11, §12, §13, §14, §15

EGFR T790M-L858R = EGFR T790M-L858R (Homo sapiens (Human), UniProt P00533, L858R/T790M); assay: Mobility Shift Assay, in vitro enzyme-inhibiting activity, EGFR T790M-L858R; assay type: biochemical; settings: Table 7
Chain of EGFR T790M-L858R (P00533 25-1210 T790M/L858R): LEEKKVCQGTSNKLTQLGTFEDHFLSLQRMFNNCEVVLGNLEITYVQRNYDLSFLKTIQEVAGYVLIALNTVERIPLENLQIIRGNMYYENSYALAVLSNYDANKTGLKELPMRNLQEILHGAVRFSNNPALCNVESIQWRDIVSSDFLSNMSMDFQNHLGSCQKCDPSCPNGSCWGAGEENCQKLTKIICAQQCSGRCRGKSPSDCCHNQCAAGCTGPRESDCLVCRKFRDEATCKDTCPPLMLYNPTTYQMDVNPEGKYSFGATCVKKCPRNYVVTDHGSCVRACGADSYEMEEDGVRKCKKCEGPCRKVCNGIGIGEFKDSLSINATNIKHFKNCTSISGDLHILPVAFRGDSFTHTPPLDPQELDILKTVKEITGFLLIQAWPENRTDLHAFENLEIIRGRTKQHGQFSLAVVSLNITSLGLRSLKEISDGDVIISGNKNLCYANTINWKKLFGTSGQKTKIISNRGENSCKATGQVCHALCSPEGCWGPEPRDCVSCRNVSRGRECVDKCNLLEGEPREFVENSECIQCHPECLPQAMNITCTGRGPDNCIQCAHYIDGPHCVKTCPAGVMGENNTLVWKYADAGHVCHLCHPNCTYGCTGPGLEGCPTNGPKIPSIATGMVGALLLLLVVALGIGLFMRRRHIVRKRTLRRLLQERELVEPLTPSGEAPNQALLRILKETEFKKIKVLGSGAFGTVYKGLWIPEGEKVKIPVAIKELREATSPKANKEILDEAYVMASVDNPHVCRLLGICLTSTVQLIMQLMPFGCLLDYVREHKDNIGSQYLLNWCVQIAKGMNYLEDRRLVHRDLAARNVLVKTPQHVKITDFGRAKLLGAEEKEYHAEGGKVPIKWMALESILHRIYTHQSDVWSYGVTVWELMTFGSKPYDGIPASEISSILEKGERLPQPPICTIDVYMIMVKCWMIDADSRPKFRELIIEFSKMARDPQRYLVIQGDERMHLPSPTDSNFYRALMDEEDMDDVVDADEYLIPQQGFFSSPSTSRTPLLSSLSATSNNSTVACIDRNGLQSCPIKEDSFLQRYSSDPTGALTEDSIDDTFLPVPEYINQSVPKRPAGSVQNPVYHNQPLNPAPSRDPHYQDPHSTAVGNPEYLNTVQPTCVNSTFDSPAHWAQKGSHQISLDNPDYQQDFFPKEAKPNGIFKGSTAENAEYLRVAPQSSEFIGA
Method: as §1, §2, §3, §4, §5, §6, §7, §8, §9, §10, §11, §12, §13, §14, §15

[1] = test system: A431 cell (wild-type EGFR gene); assay: In vitro cytologic activity, Celltiter-Glo, A431 cells; assay type: cell-based; settings: Homo sapiens, A-431, 72 h, Table 10, unit inferred
Method: (§16) 1.1 Preparation of Cell Suspension
(§17) Culture medium was removed from culture bottle;
(§18) PBS was added to wash the cells; • pancreatin was added for digestion, and the cells were collected by centrifugation; • the cells were resuspended in a culture medium containing 10% fetal bovine serum, counted and adjusted to a concentration of 2×10^4/mL or 3×10^4/mL (cell viability must be greater than 90%); • the cell suspension was added to a 96-well plate, at 100 μL for each well, i.e., 2000/well for H1975 cell; 3000/well for A431 cell; and • the cells were cultured at 37° C. in 5% CO2 incubator overnight.
(§19) Dilution of a compound in DMSO (or water for injection) • (1) The compound was 5-fold diluted with DMSO from 10 mM to 2 mM, and then 4-fold diluted from 2 mM, to get 10 concentrations; • High control (HC, control without compound inhibition): 0.5% DMSO; • Low control (LC, control with compound inhibition): 1000 nM.
(§20) i. To each well, 99 μL growth medium containing 10% FBS was added, and then 1 μL diluted compound was added, the total volume of the well was […], and the final concentration of the compound was measured.
(§21) The test plate was left at room temperature, and equilibrated for 30 min. 80 μL culture medium was discarded. 60 μL CTG reagent (Celltiter-Glo kit) was added, and shaked for 2 min in a fast shaker, and was placed at room temperature for 10 min. The values were read by Envision instrument.

[2] = test system: H1975 cell (EGFR-T790M/L858R double mutation); assay: In vitro cytologic activity, Celltiter-Glo, H1975 cells; assay type: cell-based, human; settings: Table 10; for IC50: Homo sapiens, NCI-H1975, 72 h, 72 h, Celltiter-Glo, unit inferred; for Selectivity (A431/H1975): ratio of IC50
Method: as §16, §17, §18, §19, §20, §21

Chain of EGFR T790M (P00533 25-1210 T790M): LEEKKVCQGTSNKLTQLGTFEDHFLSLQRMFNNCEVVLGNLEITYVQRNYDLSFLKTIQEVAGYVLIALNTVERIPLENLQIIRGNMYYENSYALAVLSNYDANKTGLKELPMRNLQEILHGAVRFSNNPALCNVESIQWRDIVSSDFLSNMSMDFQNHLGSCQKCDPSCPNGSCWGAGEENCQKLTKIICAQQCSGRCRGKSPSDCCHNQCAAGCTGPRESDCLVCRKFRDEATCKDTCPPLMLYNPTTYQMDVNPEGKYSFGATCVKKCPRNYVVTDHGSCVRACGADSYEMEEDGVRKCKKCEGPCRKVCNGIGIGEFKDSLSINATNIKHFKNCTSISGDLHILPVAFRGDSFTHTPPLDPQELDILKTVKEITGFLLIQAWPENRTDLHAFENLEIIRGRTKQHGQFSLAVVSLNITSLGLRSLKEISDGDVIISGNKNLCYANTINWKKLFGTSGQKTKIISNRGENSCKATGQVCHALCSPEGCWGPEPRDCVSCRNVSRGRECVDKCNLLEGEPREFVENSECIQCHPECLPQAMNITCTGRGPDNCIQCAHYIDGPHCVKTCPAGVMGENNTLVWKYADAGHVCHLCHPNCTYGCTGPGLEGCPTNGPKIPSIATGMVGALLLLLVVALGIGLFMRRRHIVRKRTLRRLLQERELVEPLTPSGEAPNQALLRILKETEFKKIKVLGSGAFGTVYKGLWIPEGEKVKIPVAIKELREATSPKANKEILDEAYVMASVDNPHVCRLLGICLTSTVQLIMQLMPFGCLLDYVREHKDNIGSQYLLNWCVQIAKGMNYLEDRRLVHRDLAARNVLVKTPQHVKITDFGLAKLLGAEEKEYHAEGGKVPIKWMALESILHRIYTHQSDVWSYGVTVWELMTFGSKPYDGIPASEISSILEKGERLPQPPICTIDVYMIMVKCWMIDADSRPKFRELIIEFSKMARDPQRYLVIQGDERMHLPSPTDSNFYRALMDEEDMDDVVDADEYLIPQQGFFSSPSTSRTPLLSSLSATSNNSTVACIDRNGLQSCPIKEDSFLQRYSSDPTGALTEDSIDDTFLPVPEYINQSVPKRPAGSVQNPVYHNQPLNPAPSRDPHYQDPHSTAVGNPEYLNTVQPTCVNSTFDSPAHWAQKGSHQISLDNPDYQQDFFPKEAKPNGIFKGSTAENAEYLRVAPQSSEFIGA

SMILES | IC50 (EGFR T790M; Table 4, unit inferred) | Selectivity (WT/T790M) (EGFR T790M; Table 4) | IC50 (wild-type EGFR (WT EGFR); Table 4, unit inferred) | IC50 [1] | IC50 [2] | Selectivity (A431/H1975) [2] | further results
C=CC(=O)Nc1cccc(Nc2nc(Nc3ccc(C4CCN(CCF)C(=O)C4)cc3OC)ncc2C(F)(F)F)c1 (stereo not drawn) [Compound 23, N-(3-((2-((4-(1-(2-fluoroethyl)-2-oxopiperidin-4-yl)-2-methoxyphenyl)amino)-5-(trifluoromethyl)pyrimidin-4-yl)amino)phenyl)acrylamide] | 3.9 nM | 75.4 | 294 nM | – | – | – | –
C=CC(=O)Nc1cccc(Nc2nc(Nc3ccc(C4CCN(C(=O)CC)CC4)cc3OC)ncc2C(F)(F)F)c1 [Compound 24, N-(3-((2-((2-methoxy-4-(1-propionylpiperidin-4-yl)phenyl)amino)-5-(trifluoromethyl)pyrimidin-4-yl)amino)phenyl)acrylamide] | – | – | – | – | – | – | IC50 (EGFR L858R; Km ATP): 109 nM; Selectivity WT/L858R (EGFR L858R; ratio of IC50): 6.1; IC50 (EGFR T790M; Table 7): 9.1 nM; Selectivity (WT/T790M) (EGFR T790M; Table 7): 73.2; IC50 (wild-type EGFR (WT EGFR); Table 7): 666 nM; IC50 (EGFR (d746-750); Km ATP): 91.7 nM; Selectivity WT/d746-750 (EGFR (d746-750); ratio of IC50): 7.3; IC50 (EGFR T790M-L858R; Km ATP): 10.2 nM; Selectivity WT/T790M-L858R (EGFR T790M-L858R; ratio of IC50): 65.4
C=CC(=O)Nc1cccc(Nc2nc(Nc3ccc(C4CCN(C(=O)CCF)CC4)cc3OC)ncc2C(F)(F)F)c1 [Compound 25, N-(3-((2-((4-(1-(3-fluoropropionyl)piperidin-4-yl)-2-methoxyphenyl)amino)-5-(trifluoromethyl)pyrimidin-4-yl)amino)phenyl)acrylamide] | 7.1 nM | 96.2 | 683 nM | 3890 nM | 308 nM | 12.6 | –
C=CC(=O)Nc1cccc(Nc2nc(Nc3ccc(C4CCN(C)CC4)cc3OC)ncc2C(F)(F)F)c1 [Compound 29, N-(3-((2-((2-methoxy-4-(1-methylpiperidin-4-yl)phenyl)amino)-5-(trifluoromethyl)pyrimidin-4-yl)amino)phenyl)acrylamide] | 0.32 nM | 34.4 | 11 nM | 272 nM | 22.5 nM | 12.1 | –
C=CC(=O)Nc1cccc(Nc2nc(Nc3ccc(OC)c4c3CCN(C(C)=O)C4)ncc2C(F)(F)F)c1 [Compound 35, N-(3-((2-((2-acetyl-8-methoxy-1,2,3,4-tetrahydroisoquinoline-5-yl)amino)-5-(trifluoromethyl)pyrimidin-4-yl)amino)phenyl)acrylamide] | – | – | – | 3600 nM | 266 nM | 13.5 | –
C=CC(=O)Nc1cccc(Nc2nc(Nc3ccc(OC)c4c3CN(C(C)=O)C4)ncc2C(F)(F)F)c1 [Compound 36, N-(3-((2-((2-acetyl-7-methoxyisoindolin-4-yl)amino)-5-(trifluoromethyl)pyrimidin-4-yl)amino)phenyl)acrylamide] | – | – | – | 7000 nM | 326 nM | 21.5 | –
C=CC(=O)Nc1cccc(Nc2nc(Nc3cccc4c3CCN(C(C)=O)C4)ncc2C(F)(F)F)c1 [Compound 37, N-(3-((2-((2-acetyl-1,2,3,4-tetrahydroisoquinoline-5-yl)amino)-5-(trifluoromethyl)pyrimidin-4-yl)amino)phenyl)acrylamide] | 9.9 nM | 129.7 | 1280 nM | – | – | – | –
